In US20230278972A1, “SUBSTITUTED HALOALKYL SULFONANILIDE HERBICIDES” (FMC Corporation, priority 2020, published 2023):

Legend:
[1] = tested on: barnyardgrass (Echinochloa crus-galli); assay: Test A preemergence, barnyardgrass; assay type: in vivo; conditions: Echinochloa crus-galli, pre-emergence, 240 h; Preemergence, 1000 g ai/ha; 0 to 100 scale (0 no effect, 100 complete control); read-out: Plant response rating, Barnyardgrass
Procedure, shortened: (§1)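 Formulated with a surfactant in a non-phytotoxic solvent, compounds are applied to loam–sand pots, either to bare soil immediately after seeding (preemergence) or to seedlings of 2 to 10 cm bearing one to two leaves (postemergence).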

kochia (Bassia scoparia) [2] = assay: Test A preemergence, kochia; assay type: in vivo; conditions: Bassia scoparia, pre-emergence, 240 h; Preemergence, 1000 g ai/ha; 0 to 100 scale (0 no effect, 100 complete control); read-out: Plant response rating, Kochia
Procedure, shortened: as §1

[3] = tested on: ragweed (common ragweed, Ambrosia artemisiifolia); assay: Test A preemergence, ragweed; assay type: in vivo; conditions: Ambrosia artemisiifolia, pre-emergence, 240 h; Preemergence, 1000 g ai/ha; 0 to 100 scale (0 no effect, 100 complete control); read-out: Plant response rating, Ragweed
Procedure, shortened: as §1

[4] = tested on: Ryegrass, Italian (Italian ryegrass, Lolium multiflorum); assay: Test A preemergence, Ryegrass, Italian; assay type: in vivo; conditions: Lolium multiflorum, pre-emergence, 240 h; Preemergence, 1000 g ai/ha; 0 to 100 scale (0 no effect, 100 complete control); read-out: Plant response rating, Ryegrass, Italian
Procedure, shortened: as §1

[5] = tested on: Foxtail, Giant (giant foxtail, Setaria faberi); assay: Test A preemergence, Foxtail, Giant; assay type: in vivo; conditions: Setaria faberi, pre-emergence, 240 h; Preemergence, 1000 g ai/ha; 0 to 100 scale (0 no effect, 100 complete control); read-out: Plant response rating, Foxtail, Giant
Procedure, shortened: as §1

[6] = tested on: pigweed (Amaranthus retroflexus); assay: Test A preemergence, pigweed; assay type: in vivo; conditions: Amaranthus retroflexus, pre-emergence, 240 h, 1000 g ai/ha, 0 to 100 scale (0 no effect, 100 complete control), read-out: Plant response rating, Pigweed
Procedure, shortened: (§2)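 Postemergence ratings come from foliar sprays onto one- to two-leaf plants of 2 to 10 cm grown in loam/sand; preemergence ratings come from a directed spray onto the soil of newly seeded pots. Formulation was a surfactant-containing non-phytotoxic solvent blend.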

[7] = tested on: barnyardgrass (Echinochloa crus-galli); assay: Test A postemergence, barnyardgrass; assay type: in vivo; conditions: Echinochloa crus-galli, post-emergence, 240 h; Postemergence, 1000 g ai/ha; visual injury, 0 to 100 scale (0 no effect, 100 complete control), approx. 10 days; read-out: Plant response rating, Barnyardgrass
Procedure, shortened: as §2

kochia (Bassia scoparia) [8] = assay: Test A postemergence, kochia; assay type: in vivo; conditions: Bassia scoparia, post-emergence, 240 h; Postemergence, 1000 g ai/ha; visual injury, 0 to 100 scale (0 no effect, 100 complete control), approx. 10 days; read-out: Plant response rating, Kochia
Procedure, shortened: as §1

[9] = tested on: ragweed (common ragweed, Ambrosia artemisiifolia); assay: Test A postemergence, ragweed; assay type: in vivo; conditions: Ambrosia artemisiifolia, post-emergence, 240 h; Postemergence, 1000 g ai/ha; visual injury, 0 to 100 scale (0 no effect, 100 complete control), approx. 10 days; read-out: Plant response rating, Ragweed
Procedure, shortened: as §1

[10] = tested on: Ryegrass, Italian (Italian ryegrass, Lolium multiflorum); assay: Test A postemergence, Ryegrass, Italian; assay type: in vivo; conditions: Lolium multiflorum, post-emergence, 240 h; Postemergence, 1000 g ai/ha; visual injury, 0 to 100 scale (0 no effect, 100 complete control), approx. 10 days; read-out: Plant response rating, Ryegrass, Italian
Procedure, shortened: as §1

[11] = tested on: Foxtail, Giant (giant foxtail, Setaria faberi); assay: Test A postemergence, Foxtail, Giant; assay type: in vivo; conditions: Setaria faberi, post-emergence, 240 h; Postemergence, 1000 g ai/ha; visual injury, 0 to 100 scale (0 no effect, 100 complete control), approx. 10 days; read-out: Plant response rating, Foxtail, Giant
Procedure, shortened: as §1

[12] = tested on: pigweed (Amaranthus retroflexus); assay: Test A postemergence, pigweed; assay type: in vivo; conditions: Amaranthus retroflexus, post-emergence, 240 h; Postemergence, 1000 g ai/ha; visual injury, 0 to 100 scale (0 no effect, 100 complete control), approx. 10 days; read-out: Plant response rating, Pigweed
Procedure, shortened: as §1

[13] = tested on: wheat (Triticum aestivum); assay: Test A postemergence, wheat; assay type: in vivo; conditions: Triticum aestivum, post-emergence, 240 h; Postemergence, 1000 g ai/ha; visual injury, 0 to 100 scale (0 no effect, 100 complete control), approx. 10 days; read-out: Plant response rating, Wheat
Procedure, shortened: as §2

corn (Zea mays) = assay: Test A postemergence, corn; assay type: in vivo; conditions: Zea mays, post-emergence, 240 h; Postemergence, 1000 g ai/ha; visual injury, 0 to 100 scale (0 no effect, 100 complete control), approx. 10 days
Procedure, shortened: as §1

[14] = tested on: blackgrass (Alopecurus myosuroides); assay: Test A postemergence, blackgrass; assay type: in vivo; conditions: Alopecurus myosuroides, post-emergence, 240 h; Postemergence, 1000 g ai/ha; visual injury, 0 to 100 scale (0 no effect, 100 complete control), approx. 10 days; read-out: Plant response rating, Blackgrass
Procedure, shortened: as §1

[15] = tested on: galium (catchweed bedstraw, Galium aparine); assay: Test A postemergence, galium; assay type: in vivo; conditions: Galium, post-emergence, 240 h; Postemergence, 1000 g ai/ha; visual injury, 0 to 100 scale (0 no effect, 100 complete control), approx. 10 days; read-out: Plant response rating, Galium
Procedure, shortened: as §2

rice (Oryza sativa) = assay: Test B flooded paddy test, rice; conditions: 336 h, read-out: Plant response rating, Rice
[16] = tested on: ducksalad (Heteranthera limosa); assay: Test B flooded paddy test, ducksalad; conditions: 336 h, read-out: Plant response rating, Ducksalad
[17] = tested on: barnyardgrass (Echinochloa crus-galli); assay: Test B flooded paddy test, barnyardgrass; conditions: 336 h, read-out: Plant response rating, Barnyardgrass

Q: For Cc1cc(C)c(C(=O)N2CCCCC2)cc1NS(=O)(=O)C(F)(F)F [Compound 260, N-[2,4-Dimethyl-5-(1-piperidinylcarbonyl)phenyl]-1,1,1-trifluoromethanesulfonamide], which pest or weed control at 1000 g/ha [1] is on record?
A: 100%

Q: What about the pest or weed control at 1000 g/ha (kochia (Bassia scoparia) [2]) of the same compound?
A: 40%

Q: And the pest or weed control at 1000 g/ha [3]?
A: 90%

Q: And the pest or weed control at 1000 g/ha [4]?
A: 100%

Q: What about the pest or weed control at 1000 g/ha [5] of the same compound?
A: 100%

Q: What about the pest or weed control at 1000 g/ha [6] of the same compound?
A: 100%

Q: What about the pest or weed control at 1000 g/ha [7] of the same compound?
A: 90%

Q: And the pest or weed control at 1000 g/ha (kochia (Bassia scoparia) [8])?
A: 0%

Q: And the pest or weed control at 1000 g/ha [9]?
A: 50%

Q: What about the pest or weed control at 1000 g/ha [10] of the same compound?
A: 60%

Q: And the pest or weed control at 1000 g/ha [11]?
A: 50%

Q: What about the pest or weed control at 1000 g/ha [12] of the same compound?
A: 80%

Q: What about the plant injury at 1000 g/ha [13] of the same compound?
A: 60%

Q: What about the Corn plant response rating (crop injury, 0 = no effect, 100 = complete kill) at 1000 g/ha (corn (Zea mays)) of the same compound?
A: 10%

Q: What about the pest or weed control at 1000 g/ha [14] of the same compound?
A: 50%

Q: What about the pest or weed control at 1000 g/ha [15] of the same compound?
A: 70%

Q: And the melting point?
A: 262 to 266 °C

Q: What about the plant injury at 250 g/ha (rice (Oryza sativa)) of the same compound?
A: 0%

Q: And the pest or weed control at 250 g/ha [16]?
A: 80%

Q: What about the pest or weed control at 250 g/ha [17] of the same compound?
A: 0%
